These results are taken from US9683018B2, “Disulfide cyclic polypeptides for the treatment of heart failure” (priority 2013, dated 2017).

For one series, the target named is T1, hAPJ (Homo sapiens, UniProt P35414).
T1 sequence (P35414 1-380): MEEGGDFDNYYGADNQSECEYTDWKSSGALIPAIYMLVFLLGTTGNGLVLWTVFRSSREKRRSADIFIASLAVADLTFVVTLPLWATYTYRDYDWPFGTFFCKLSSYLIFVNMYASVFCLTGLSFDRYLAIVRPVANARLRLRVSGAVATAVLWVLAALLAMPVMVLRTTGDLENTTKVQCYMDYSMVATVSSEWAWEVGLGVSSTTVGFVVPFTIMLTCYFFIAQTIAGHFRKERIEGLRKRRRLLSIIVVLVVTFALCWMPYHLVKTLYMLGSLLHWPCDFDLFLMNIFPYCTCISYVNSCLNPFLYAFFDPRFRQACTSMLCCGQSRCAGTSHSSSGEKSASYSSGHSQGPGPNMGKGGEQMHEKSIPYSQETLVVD
Briefly: hAPJ Calcium Flux Assay. The series is classed as cell-based. Conditions: Chem-5 APJ stable cells, FLIPR calcium flux; read-out: hAPJ Ca2+ Flux EC50. On the procedure: Chem-5 APJ stable cells (Millipore # HTS068C) were plated in 384-well format with 10,000 cells/well in 25 ul growth media, then grown 24 hours in a 37° C. tissue culture incubator. One hour before the assay, 25 ul/well FLIPR Calcium 4 dye (Molecular Devices R8142) with 2.5 mM probenecid was added, and cells were incubated one hour in a 37° C. tissue culture incubator. Peptides were solubilized in HBSS, HEPES & 0.1% BSA buffer, and serially-diluted 10-fold, from 50 uM to 5 pM, in triplicate. FLIPR Tetra was used to add peptide to the cells with dye (1:5, for final peptide concentrations ranging from 10 uM to 1 pM). FLIPR dye inside the cells emitted fluorescence after binding to calcium, while fluorescence from outside the cells was masked. Fluorescence was measured using 470-495 excitation and 515-575 emission wavelengths on the FLIPR Tetra. Readings were done for 3 minutes total, beginning 10 seconds before the peptide addition. Maximum-minimum values were calculated and plotted for each peptide concentration, and GraphPad prism software was used to calculate EC50 values at the curve inflection points, for calcium flux stimulation by peptides.
Background: Calcium assays in cells follow changes in intracellular calcium, usually with a dye or a luminescent sensor.

Series [1] can be described thus: Plasma stability assay (LC-MS). It is filed as in vitro ADME. Conditions: male, Sprague-Dawley, heparinized rat plasma, 37° C., Table 3, read-out: Plasma stability t½. How it is done:
Working solution: 1 mg/mL test article is prepared in Milli-Q water
Extraction solution: Methanol:Acetonitrile:Water (1:1:1) with 0.1% Formic Acid and 400 ng/mL Glyburide.
Plasma: Male Sprague-Dawley rat plasma (with sodium heparin), purchased from Bioreclamation LLC (Liverpool, N.Y.).
Test article was prepared in one of the following biological matrices: heparinized rat plasma, heparinized rat whole blood or lung homogenate. The plasma and whole blood sample was prepared at 5000 ng/mL by adding 5 uL of 1 mg/mL Working solution to 995 uL of rat plasma or whole blood. Lung homogenate samples were prepared by diluting lung homogenate to 1 mg/ml protein concentration with phosphate buffered saline (PBS), followed by addition of 5 uL Working solution to 995 uL diluted lung homogenate. The samples were incubated at 37° C. with gentle shaking (65˜75 rpm) in a water bath incubator. At times 0 min, 5 min, 15 min, 30 min, 60 min, 120 and 240 min, 25 uL aliquots of incubation samples were transferred to 96-well plate and immediately protein precipitated using 150 uL of Extraction solution. After completion of incubation experiment, the sample plate was centrifuged at 4000 rpm at 4° C. for 10 minutes. Afterwards, a pipetting device (Tecan Temo) was used to transfer the supernatants to another plate and add 50 uL of water to all samples. The plate was vortexed prior to LC-MS analysis.
LC-MS Analysis of stability samples
HPLC: Agilent 1290 HPLC with autosampler
Column: MAC-MOD ACE C18, 3 μm, 30 mm×2.1 mm i.d.
Mobile phase A: 0.1% Formic acid in acetonitrile
Mobile phase B: 0.1% Formic acid in water

A further series in a line: in vitro. Conditions: rat, plasma.
The mark [2] stands for this setting: Surrogate Activity based Plasma stability t½.
The mark [3] stands for this setting: Surrogate activity-based Plasma stability t½.

Bridge positions count the residues as written; N and C are the ends. Square brackets hold non-standard residues; d marks the D form. Peptide text beside a SMILES is read from it. * marks the point of attachment. pGlu = O=C1CC[C@@H](C(=O)O)N1; NHPhenethyl = c1ccc(CCN*)cc1; Nle = CCCC[C@H](N)C(=O)O; Aib = CC(C)(N)C(=O)O; Inp = O=C(O)C1CCNCC1

Protocol for in vitro: The calcium flux protocol described above was followed, with the following changes. The peptides were also incubated with 5% rat plasma (Bioreclamation # [sequence]-M, Na Heparin-treated). Readings were taken at time points t0 and t24 hrs, after incubation in a 37° C. tissue culture incubator. Peptide plasma half-life in minutes was estimated by calculating the following:
2) Calculate slope of value above and

`CCCC[C@@H]1NC(=O)[C@@H]2CCCN2C(=O)CNC(=O)[C@H](CCCCN)NC(=O)[C@@H](NC(=O)[C@H](CO)NC(=O)[C@H](CC(C)C)NC(=O)[C@H](CCCNC(=N)N)NC(=O)[C@@H]2CCCN2C(=O)[C@H](CCCNC(=N)N)NC(=O)[C@@H]2CCC(=O)N2)CSSC[C@@H](C(=O)N[C@@H](Cc2ccccc2)C(=O)O)NC1=O` [Example 3, pE-R-P-R-L-S-C*-K-G-P-Nle-C*-F-OH] ([pGlu]RPRLSCKGP[Nle]CF-OH; disulfide 7-12): the EC50 on hAPJ came to 128 nM. The half-life at 5000 ng/mL in series [1] was 1.35 h. Further, the half-life in the series “in vitro” (setting [2]) and in “in vitro” (setting [3]) was 0.433 h throughout.
As to `CCCC[C@@H]1NC(=O)[C@@H]2CCCN2C(=O)CNC(=O)[C@H](CCCCN)NC(=O)[C@H](Cc2c[nH]cn2)NC(=O)[C@H](CO)NC(=O)[C@@H](NC(=O)[C@H](CCCNC(=N)N)NC(=O)[C@@H]2CCCN2C(=O)[C@H](CCCNC(=N)N)NC(=O)[C@@H]2CCC(=O)N2)CSSC[C@@H](C(=O)N[C@@H](Cc2ccccc2)C(=O)O)NC1=O` [Example 1, pE-R-P-R-C*-S-H-K-G-P-Nle-C*-F-OH] ([pGlu]RPRCSHKGP[Nle]CF-OH; disulfide 5-12), the EC50 on hAPJ is 0.74 nM. In series [1], the half-life at 5000 ng/mL came to 2.82 h. Also, the half-life in “in vitro” (setting [2]) and in “in vitro” (setting [3]) was 2.12 h in each case.
Regarding `CCCC[C@@H]1NC(=O)[C@@H]2CCCN2C(=O)[C@@H](NC(=O)[C@H](CCCCN)NC(=O)C(C)(C)NC(=O)[C@H](CO)NC(=O)[C@H](CC(C)C)NC(=O)[C@H](CCCNC(=N)N)NC(=O)[C@@H]2CCCN2C(=O)[C@H](CCCNC(=N)N)NC(=O)[C@@H]2CCC(=O)N2)CSSC[C@@H](C(=O)NCCc2ccccc2)NC1=O` [Example 15, pE-R-P-R-L-S-Aib-K-C*-P-Nle-C*-NH(Phenethyl)] ([pGlu]RPRLS[Aib]KCP[Nle]C-NHPhenethyl; disulfide 9-12), the EC50 on hAPJ is 4 nM. Also, the half-life at 5000 ng/mL in series [1] came out at 0.7 h. The half-life in the series “in vitro” (setting [2]) and in the series “in vitro” (setting [3]) was 0.683 h throughout.
Regarding `CCCC[C@@H]1NC(=O)[C@@H]2CCCN2C(=O)[C@@H](NC(=O)[C@H](CCCCN)NC(=O)[C@H](Cc2c[nH]cn2)NC(=O)[C@@H](C)NC(=O)[C@H](CC(C)C)NC(=O)[C@H](CCCNC(=N)N)NC(=O)[C@@H]2CCCN2C(=O)[C@H](CCCNC(=N)N)NC(=O)[C@@H]2CCC(=O)N2)CSSC[C@@H](C(=O)N[C@H](Cc2ccccc2)C(=O)O)NC1=O` [Example 17, pE-R-P-R-L-a-H-K-C*-P-Nle-C*-f-OH] ([pGlu]RPRL[dA]HKCP[Nle]C[dF]-OH; disulfide 9-12), on hAPJ, the EC50 was 1.9 nM. Besides, the half-life at 5000 ng/mL in series [1] came out at 8.42 h. The half-life in “in vitro” (setting [2]) and in “in vitro” (setting [3]) was 15.1 h throughout.
For the compound `CCCC[C@@H]1NC(=O)[C@@H]2CCCN2C(=O)[C@@H](NC(=O)[C@H](CCCCN)NC(=O)[C@H](Cc2c[nH]cn2)NC(=O)[C@H](CO)NC(=O)[C@H](CC(C)C)NC(=O)[C@H](CCCNC(=N)N)NC(=O)[C@@H]2CCCN2C(=O)[C@H](CCCNC(=N)N)NC(=O)[C@@H]2CCC(=O)N2)CSSC[C@@H](C(=O)N[C@@H](Cc2ccccc2)C(=O)O)NC1=O` [Example 14, pE-R-P-R-L-S-H-K-C*-P-Nle-C*-F-OH] ([pGlu]RPRLSHKCP[Nle]CF-OH; disulfide 9-12), the EC50 on hAPJ was 0.81 nM. Besides, the half-life at 5000 ng/mL in series [1] amounted to 1.08 h. In addition, the half-life in “in vitro” (setting [2]) and in “in vitro” (setting [3]) was 0.483 h throughout.
Regarding `CCCC[C@@H]1NC(=O)[C@@H]2CCCN2C(=O)[C@@H](NC(=O)[C@H](CCCCN)NC(=O)[C@H](Cc2c[nH]cn2)NC(=O)[C@@H](C)NC(=O)[C@H](CC(C)C)NC(=O)[C@H](CCCNC(=N)N)NC(=O)[C@@H]2CCCN2C(=O)[C@H](CCCNC(=N)N)NC(=O)C2CCNCC2)CSSC[C@@H](C(=O)N[C@H](Cc2ccccc2)C(=O)O)NC1=O` [Example 18, Isonipecotoyl-R-P-R-L-a-H-K-C*-P-Nle-C*-f-OH] (H-[Inp]RPRL[dA]HKCP[Nle]C[dF]-OH; disulfide 9-12), on hAPJ, the EC50 was 2.3 nM. The same compound returned a half-life in the series “in vitro” (setting [3]) of 16.5 h.

By EC50 is commonly meant the concentration that produces a half-maximal response.
